Measured values from patent US9725459B2, “3-oxo-tetrahydro-furo[3,2-B]pyrrol-4(5H)-yl) derivatives I” (GRÜNENTHAL GMBH, priority 2014, dated 2017).

Legend:
human cathepsin S (CatS) = human cathepsin S (CatS) (Homo sapiens (Human), UniProt P25774); assay: CatS functional enzyme assay; format: biochemical; settings: for Selectivity Ki(hCatS)/Ki(hCatK): ratio Ki(hCatS)/Ki(hCatK); for Ki: recombinant human CatS, substrate Z-VVR-AMC 5 μM, pH 6.5, Ki by Cheng Prusoff equation, read-out: hCatS, Ki
Summary of the method: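 Recombinant human enzymes were incubated 10 min at RT with AMC substrate: CatS 0.0007 mU/well with Z-VVR-AMC 5 µM; CatK 0.00175 mU/well with Z-FR-AMC 40 µM; CatL 0.000874 mU/well with Z-VVR-AMC 40 µM. Fluorescence gave IC50, converted to Ki by Cheng-Prusoff.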

human cathepsin K (CatK) = human cathepsin K (CatK) (Homo sapiens (Human), UniProt P43235); assay: CatK functional enzyme assay; format: biochemical; settings: recombinant human CatK, substrate Z-FR-AMC 40 μM, pH 5.5; Ki by Cheng Prusoff equation; read-out: hCatK, Ki
Chain of human cathepsin K (CatK) (P43235 115-329): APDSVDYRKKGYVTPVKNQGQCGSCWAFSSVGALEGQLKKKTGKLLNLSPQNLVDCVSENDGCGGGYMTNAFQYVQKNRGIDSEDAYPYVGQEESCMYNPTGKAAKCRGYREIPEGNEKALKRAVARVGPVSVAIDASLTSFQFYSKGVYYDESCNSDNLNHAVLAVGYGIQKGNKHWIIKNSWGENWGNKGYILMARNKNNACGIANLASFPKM
Summary of the method: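 Recombinant human enzymes in 50 mM NaOAc, 10 mM EDTA, 1 mM DTT, 0.01% Triton X-100, pH 5.5, 10 min at RT. CatK: 0.00175 mU/well with 40 μM Z-FR-AMC; CatL: 0.000874 mU/well with 40 μM Z-VVR-AMC. AMC fluorescence read; IC50 converted to Ki via Cheng–Prusoff.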

human cathepsin L (CatL) = human cathepsin L (CatL) (Homo sapiens (Human), UniProt P07711); assay: CatL functional enzyme assay; format: biochemical; settings: read-out: hCatL, inhibition [%] at 31.6 μM
Chain of human cathepsin L (CatL) (P07711 114-333): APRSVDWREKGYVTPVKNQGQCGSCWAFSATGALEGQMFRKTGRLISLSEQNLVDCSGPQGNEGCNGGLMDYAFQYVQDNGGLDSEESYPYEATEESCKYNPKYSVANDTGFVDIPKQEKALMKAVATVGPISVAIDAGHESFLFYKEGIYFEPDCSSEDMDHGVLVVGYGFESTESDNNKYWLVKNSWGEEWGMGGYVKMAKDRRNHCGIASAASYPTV

[1] = Caco 2 permeability assay; format: in vitro ADME, human; settings: human; for efflux ratio at 120 min, 10 μM: pH 7.4, efflux ratio ER=Peff(B−A)/Peff(A−B), Caco-2; for Papp A→B at 120 min, 10 μM / Papp B→A at 120 min, 10 μM: Caco-2 monolayer, HBSS pH 7.4; for Papp A→B at 120 min, 10 μM: apical to basolateral, read-out: Peff a − b; for Papp B→A at 120 min, 10 μM: basolateral to apical, read-out: Peff b − a
Description: (§1) The intestinal permeability of a potential drug is assessed by in vitro cell culture from a human colon adenoma-carcinoma derived cell line. This cell line expresses some of the systems considered relevant to active drug transport e.g. […] (P-gp). In vitro cellular permeability assays can reflect both, permeation by passive diffusion and active transport (uptake and efflux). The rate of permeation across monolayers of Caco 2 cells were correlated to the extents of absorption (Hidalgo et al., Gastroenterology 1989; 96(3):736 49). Original methodology was developed by Artursson and Taveli (Drug Bioavailability. Series: Methods and Principles in Medicinal Chemistry. Weinheim: Wiley-VCH Verlag; 2003; p. 72-89).
(§2) The assay is performed as a trans-flux experiment. Caco-2 cells (cells from ATCC) are seeded and grown to confluence to form a monolayer (ca. 3 weeks, between passage numbers 40-60) on a readily permeable support in a plastic well supported within a chamber (Millipore Multiscreen Caco-2 plates, at a cell density of ca. 1×10^5 cells/cm^2). Cells are cultured for 20 days in DMEM and media is changed every two or three days. The cells form tight junctions, so paracellular diffusion is not possible, and grow in a polarised manner, efflux transporters (P-gp) are expressed on their apical surfaces facing the culture medium, rather than at their basolateral surfaces through which they are attached to the support membrane. A low concentration of a test compound is added to the upper (apical: A) or lower (basolateral: B) chambers, and the rate of loss from the donor compartment, and the rate of transfer to the acceptor chamber, is determined by LC-MS/MS. Consequently the influence of efflux transporters expressed in the apical membrane can be determined by comparing permeability rates from A to B and B to A. Assays are generally performed in gently shaken protein-free buffer.
(§3) On ca. day 20 the permeability study is performed. The monolayers are prepared by rinsing both basolateral and apical surfaces twice with Hanks Balanced Salt Solution (HBSS) pH 7.4 buffer with HEPES (25 mM) and 4.45 mM glucose at 37° C. Cells are then incubated with HBSS in both apical and basolateral compartments for 40 min to stabilise physiological parameters. Incubations are carried out in an atmosphere of 5% CO2 with a rel. humidity of 95% at 37° C.
(§4) HBSS is next removed from the apical compartment and replaced with test compound dosing solution. Test compound dosing solutions are made by diluting 10 mM test compound in DMSO with HBSS to give a final test compound concentration of 10 μM (final DMSO concentration 1%).
(§5) The fluorescent integrity marker lucifer yellow is also included in the dosing solution. Analytical standards are made from dosing solutions. The apical compartment inserts are then placed into ‘companion’ plates containing fresh HBSS. For basolateral to apical (B-A) permeability determination the experiment is initiated by replacing buffer in the inserts then placing them in companion plates containing dosing solutions. At 120 min the companion plate is removed and apical and basolateral samples diluted for analysis by LC-MS/MS. Test compound permeability is assessed in duplicate. […] Talinolol (a known P-gp substrate 2) is also included as a control compound to assess whether functional P-gp is present in the Caco-2 cell monolayer.
(§6) Test and control compounds are quantified by LC-MS/MS cassette analysis using a 5-point calibration with appropriate dilution of the samples. The starting concentration (C0) and experimental recovery are calculated from both apical and basolateral compartment concentrations.
(§7) Apparent permeability (Papp), used interchangeably with effective permeability (Peff) and efflux ratio (ER) are generated for each compound and reference compound. The permeability coefficient for each compound (Papp) is calculated from the following equation: Peff=dQ/dt/C0×A […]

Caco-2 cells = assay: Caco 2 permeability assay; format: in vitro ADME, human; settings: Caco-2, verbal assessment
Description: as §1, §2, §3, §4, §5, §6, §7

Chain of human cathepsin S (CatS) (P25774 115-331): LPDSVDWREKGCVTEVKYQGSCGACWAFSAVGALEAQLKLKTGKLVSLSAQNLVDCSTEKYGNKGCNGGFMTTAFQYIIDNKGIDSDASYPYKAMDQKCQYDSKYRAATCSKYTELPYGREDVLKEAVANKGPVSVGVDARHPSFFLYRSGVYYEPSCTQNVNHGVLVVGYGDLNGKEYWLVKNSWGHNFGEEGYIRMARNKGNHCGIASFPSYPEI

Row | Selectivity Ki(hCatS)/Ki(hCatK) (human cathepsin S (CatS)) | Ki (human cathepsin S (CatS)) | Ki (human cathepsin K (CatK)) | inhibition at 31.6 µM (human cathepsin L (CatL)) | efflux ratio at 120 min, 10 μM [1] | Papp A→B at 120 min, 10 μM [1] | Papp B→A at 120 min, 10 μM [1] | A to B permeability (in words) (Caco-2 cells) | B to A permeability (in words) (Caco-2 cells) | efflux ratio (ER) (in words) (Caco-2 cells) | Compound
1 | 4.7 | 56 nM | 12 nM | 28% | 1.3 | 5.37 ×10⁻⁶ cm/s | 7.03 ×10⁻⁶ cm/s | moderate | good | intermediate/low | O=C(N[C@H](C(=O)N1C[C@H](Cl)[C@H]2OCC(=O)[C@H]21)C1CCCCC1)c1ccc(-c2ccncn2)s1 [Example 7, N-((S)-2-((3aS,6S,6aS)-6-chloro-3-oxotetrahydro-2H-furo[3,2-b]pyrrol-4(5H)-yl)-1-cyclohexyl-2-oxoethyl)-5-(pyrimidin-4-yl)thiophene-2-carboxamide]
2 | 44.0 | 296 nM | 7 nM | 1% | – | – | – | – | – | – | Cc1ncccc1-c1ccc(C(=O)N[C@H](C(=O)N2C[C@H](Cl)[C@H]3OCC(=O)[C@H]32)C2CCCCC2)s1 [Example 83, N-((S)-2-((3aS,6S,6aS)-6-chloro-3-oxotetrahydro-2H-furo[3,2-b]pyrrol-4(5H)-yl)-1-cyclohexyl-2-oxoethyl)-5-(2-methylpyridin-3-yl)thiophene-2-carboxamide]
3 | 1.1 | 6 nM | 5 nM | 14% | – | – | – | – | – | – | CCc1cc(-c2ccc(C(=O)N[C@H](C(=O)N3C[C@H](Cl)[C@H]4OCC(=O)[C@H]43)C3CCCCC3)s2)cnn1 [Example 85, N-((S)-2-((3aS,6S,6aS)-6-chloro-3-oxotetrahydro-2H-furo[3,2-b]pyrrol-4(5H)-yl)-1-cyclohexyl-2-oxoethyl)-5-(6-ethylpyridazin-4-yl)thiophene-2-carboxamide]
4 | 16.2 | 59 nM | 4 nM | 14% | – | – | – | – | – | – | CCc1cc(-c2cnc(C(=O)N[C@H](C(=O)N3C[C@H](Cl)[C@H]4OCC(=O)[C@H]43)C3CCCCC3)s2)ccn1 [Example 87, N-((S)-2-((3aS,6S,6aS)-6-chloro-3-oxotetrahydro-2H-furo[3,2-b]pyrrol-4(5H)-yl)-1-cyclohexyl-2-oxoethyl)-5-(2-ethylpyridin-4-yl)thiazole-2-carboxamide]
5 | 18.6 | 335 nM | 18 nM | 0% | – | – | – | – | – | – | Cc1cc(-c2ccc(C(=O)N[C@H](C(=O)N3C[C@H](Cl)[C@H]4OCC(=O)[C@H]43)C3CCCCC3)s2)c(C)cn1 [Example 88, N-((S)-2-((3aS,6S,6aS)-6-chloro-3-oxotetrahydro-2H-furo[3,2-b]pyrrol-4(5H)-yl)-1-cyclohexyl-2-oxoethyl)-5-(2,5-dimethylpyridin-4-yl)thiophene-2-carboxamide]
6 | 0.7 | 13 nM | 18 nM | 12% | – | – | – | – | – | – | Cc1cc(-c2ccc(C(=O)N[C@H](C(=O)N3C[C@H](Cl)[C@H]4OCC(=O)[C@H]43)C3CCCCC3)s2)c(C)nn1 [Example 89, N-((S)-2-((3aS,6S,6aS)-6-chloro-3-oxotetrahydro-2H-furo[3,2-b]pyrrol-4(5H)-yl)-1-cyclohexyl-2-oxoethyl)-5-(3,6-dimethylpyridazin-4-yl)thiophene-2-carboxamide]

The remaining lines, values behind:

Row | Compound | Selectivity Ki(hCatS)/Ki(hCatK) (human cathepsin S (CatS)) | Ki (human cathepsin S (CatS)) | Ki (human cathepsin K (CatK)) | inhibition at 31.6 µM (human cathepsin L (CatL)) | efflux ratio at 120 min, 10 μM [1] | Papp A→B at 120 min, 10 μM [1] | Papp B→A at 120 min, 10 μM [1] | A to B permeability (in words) (Caco-2 cells) | B to A permeability (in words) (Caco-2 cells) | efflux ratio (ER) (in words) (Caco-2 cells)
7 | O=C(N[C@H](C(=O)N1C[C@H](Cl)[C@H]2OCC(=O)[C@H]21)C1CCCCC1)c1ccc(-c2cncnc2)s1 [Example 5, N-((S)-2-((3aS,6S,6aS)-6-chloro-3-oxotetrahydro-2H-furo[3,2-b]pyrrol-4(5H)-yl)-1-cyclohexyl-2-oxoethyl)-5-(pyrimidin-5-yl)thiophene-2-carboxamide] | 1.5 | 48 nM | 31 nM | 27% | 3.5 | 4.13 ×10⁻⁶ cm/s | 14.2 ×10⁻⁶ cm/s | moderate | good | intermediate/low
8 | O=C(N[C@H](C(=O)N1C[C@H](Cl)[C@H]2OCC(=O)[C@H]21)C1CCCCC1)c1ccc(-c2ccnnc2)s1 [Example 8, N-((S)-2-((3aS,6S,6aS)-6-chloro-3-oxotetrahydro-2H-furo[3,2-b]pyrrol-4(5H)-yl)-1-cyclohexyl-2-oxoethyl)-5-(pyridazin-4-yl)thiophene-2-carboxamide] | 1.2 | 21 nM | 17 nM | 32% | 7.5 | 1.67 ×10⁻⁶ cm/s | 12.5 ×10⁻⁶ cm/s | moderate | good | intermediate/low
9 | Cc1ccnnc1-c1ccc(C(=O)N[C@H](C(=O)N2C[C@H](Cl)[C@H]3OCC(=O)[C@H]32)C2CCCCC2)s1 [Example 84, N-((S)-2-((3aS,6S,6aS)-6-chloro-3-oxotetrahydro-2H-furo[3,2-b]pyrrol-4(5H)-yl)-1-cyclohexyl-2-oxoethyl)-5-(4-methylpyridazin-3-yl)thiophene-2-carboxamide] | 21.8 | 358 nM | 16 nM | 6% | – | – | – | – | – | –
10 | CCc1cc(-c2ccc(C(=O)N[C@H](C(=O)N3C[C@H](Cl)[C@H]4OCC(=O)[C@H]43)C3CCCCC3)s2)ccn1 [Example 86, N-((S)-2-((3aS,6S,6aS)-6-chloro-3-oxotetrahydro-2H-furo[3,2-b]pyrrol-4(5H)-yl)-1-cyclohexyl-2-oxoethyl)-5-(2-ethylpyridin-4-yl)thiophene-2-carboxamide] | 16.7 | 24 nM | 1 nM | 25% | – | – | – | – | – | –
11 | Cc1cnncc1-c1ccc(C(=O)N[C@H](C(=O)N2C[C@H](Cl)[C@H]3OCC(=O)[C@H]32)C2CCCCC2)s1 [Example 90, N-((S)-2-((3aS,6S,6aS)-6-chloro-3-oxotetrahydro-2H-furo[3,2-b]pyrrol-4(5H)-yl)-1-cyclohexyl-2-oxoethyl)-5-(5-methylpyridazin-4-yl)thiophene-2-carboxamide] | 7.3 | 73 nM | 10 nM | 20% | – | – | – | – | – | –
